{"source": "patent US8791107B2", "about": "“N-substituted oxazinopteridines and oxazinopteridinones” (Takeda Pharmaceutical Company Limited, priority 2011, dated 2014)", "data": [{"target": "T1, PI3Kδ (Homo sapiens, UniProt O00329)", "T1 construct": "The protein is full length and co-expressed with untagged PIK3R1; GST; purchased Invitrogen PV5274", "T1 sequence (O00329 whole entry)": "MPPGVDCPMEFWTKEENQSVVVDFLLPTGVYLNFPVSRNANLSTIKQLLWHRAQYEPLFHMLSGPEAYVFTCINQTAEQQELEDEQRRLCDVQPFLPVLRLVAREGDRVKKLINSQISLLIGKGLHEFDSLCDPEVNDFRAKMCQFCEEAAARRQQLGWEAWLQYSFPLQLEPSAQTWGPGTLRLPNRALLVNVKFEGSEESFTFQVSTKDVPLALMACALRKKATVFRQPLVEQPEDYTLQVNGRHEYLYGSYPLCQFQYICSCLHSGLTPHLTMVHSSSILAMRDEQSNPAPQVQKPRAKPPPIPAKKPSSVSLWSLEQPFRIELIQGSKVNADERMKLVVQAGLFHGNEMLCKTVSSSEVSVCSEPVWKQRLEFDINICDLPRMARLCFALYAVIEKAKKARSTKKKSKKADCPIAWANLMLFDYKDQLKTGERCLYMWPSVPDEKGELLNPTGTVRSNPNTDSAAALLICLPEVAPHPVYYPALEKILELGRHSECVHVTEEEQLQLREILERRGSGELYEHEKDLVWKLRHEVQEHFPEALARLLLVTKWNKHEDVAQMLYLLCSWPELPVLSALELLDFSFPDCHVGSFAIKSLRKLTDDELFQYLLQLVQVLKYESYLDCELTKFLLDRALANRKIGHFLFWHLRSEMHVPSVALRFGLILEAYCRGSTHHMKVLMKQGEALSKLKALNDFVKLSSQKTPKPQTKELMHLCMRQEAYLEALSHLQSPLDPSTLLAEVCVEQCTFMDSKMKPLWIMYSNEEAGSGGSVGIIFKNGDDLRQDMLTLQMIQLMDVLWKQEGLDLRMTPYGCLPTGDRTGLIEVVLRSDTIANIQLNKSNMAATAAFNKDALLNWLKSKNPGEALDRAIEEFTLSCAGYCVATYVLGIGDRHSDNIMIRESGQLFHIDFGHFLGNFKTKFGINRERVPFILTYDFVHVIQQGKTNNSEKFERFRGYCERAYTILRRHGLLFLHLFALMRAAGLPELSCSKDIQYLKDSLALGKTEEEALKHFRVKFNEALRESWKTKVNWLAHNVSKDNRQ", "T1 sequence (P27986 whole entry partner)": "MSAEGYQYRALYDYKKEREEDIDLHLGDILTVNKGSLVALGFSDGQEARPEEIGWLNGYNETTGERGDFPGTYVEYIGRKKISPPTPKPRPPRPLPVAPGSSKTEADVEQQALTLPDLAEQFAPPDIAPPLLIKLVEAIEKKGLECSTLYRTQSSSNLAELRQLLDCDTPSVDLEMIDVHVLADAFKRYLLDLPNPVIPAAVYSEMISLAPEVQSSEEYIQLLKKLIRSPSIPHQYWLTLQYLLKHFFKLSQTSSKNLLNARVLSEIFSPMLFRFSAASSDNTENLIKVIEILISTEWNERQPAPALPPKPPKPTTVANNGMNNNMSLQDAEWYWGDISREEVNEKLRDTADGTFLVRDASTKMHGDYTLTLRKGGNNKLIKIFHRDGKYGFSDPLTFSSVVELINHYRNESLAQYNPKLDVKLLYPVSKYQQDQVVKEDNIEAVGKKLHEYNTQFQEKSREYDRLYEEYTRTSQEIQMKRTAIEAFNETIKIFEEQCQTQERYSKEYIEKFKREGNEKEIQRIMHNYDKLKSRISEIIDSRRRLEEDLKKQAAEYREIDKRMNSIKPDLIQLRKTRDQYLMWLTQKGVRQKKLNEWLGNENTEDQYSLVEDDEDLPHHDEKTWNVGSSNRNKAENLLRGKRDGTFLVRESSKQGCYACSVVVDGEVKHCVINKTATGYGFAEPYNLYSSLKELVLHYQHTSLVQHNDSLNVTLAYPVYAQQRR", "test": "PI3Kδ inhibition, modified PIK3CD Adapta TR-FRET assay", "assay_type": "biochemical", "details": "recombinant GST-tagged full length PIK3CD co-expressed with PIK3R1 (p85α); 2 μM ATP, 50 μM PIP2", "outline": "(§1)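 Inhibition was derived from % conversion against positive and negative controls, with ADP read by Adapta Eu-antibody/tracer TR-FRET. Room-temperature reactions used GST-PIK3CD/p85α in HEPES pH 7.5 buffer (MgCl2, EGTA, NaCl, CHAPS, fresh DTT), 1% DMSO final and 12 concentrations. They were initiated by adding 2 μM ATP/50 μM PIP2 solution.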", "values": [{"smiles": "Cc1ccc([C@H](C)N2C(=O)[C@H]3COCCN3c3nc(-c4cccc5[nH]ccc45)ncc32)cc1", "note": "[Example 154, (R)-2-(1H-indol-4-yl)-5-((5)-1-p-tolylethyl)-6a,7,9,10-tetrahydro-[1,4]oxazino[3,4-h]pteridin-6(5H)-one]", "PI3Kδ Inhibition (pIC50)": 6.9}]}, {"target": "T1, PI3Kδ", "test": "PI3Kδ inhibition, modified PIK3CD Adapta TR-FRET assay", "assay_type": "biochemical", "details": "recombinant GST-tagged full length PIK3CD co-expressed with PIK3R1 (p85α); 2 μM ATP, 50 μM PIP2; read-out: PI3Kδ Inhibition (pIC50) (converted)", "outline": "as §1", "units": {"IC50": "nM"}, "values": [{"smiles": "CS(=O)(=O)c1ccc(CN2C(=O)C3COCCN3c3nc(-c4c[nH]c5c(Cl)cccc45)ncc32)cc1", "note": "(centres unmarked) [Example 134, 2-(7-chloro-1H-indol-3-yl)-5-(4-(methylsulfonyl)benzyl)-6a,7,9,10-tetrahydro-[1,4]oxazino[3,4-h]pteridin-6(5H)-one]", "IC50": "> 100"}, {"smiles": "COc1ccc2c(-c3ncc4c(n3)N3CCOCC3C(=O)N4Cc3ccc(S(C)(=O)=O)cc3)c[nH]c2c1", "note": "(centres unmarked) [Example 136, 2-(6-methoxy-1H-indol-3-yl)-5-(4-(methylsulfonyl)benzyl)-6a,7,9,10-tetrahydro-[1,4]oxazino[3,4-h]pteridin-6(5H)-one]", "IC50": 501}, {"smiles": "CS(=O)(=O)c1ccc(CN2C(=O)C3COCCN3c3nc(-c4c[nH]c5ncccc45)ncc32)cc1", "note": "(centres unmarked) [Example 137, 5-(4-(methylsulfonyl)benzyl)-2-(1H-pyrrolo[2,3-b]pyridin-3-yl)-6a,7,9,10-tetrahydro-[1,4]oxazino[3,4-h]pteridin-6(5H)-one]", "IC50": 501}, {"smiles": "COc1cccc2c(-c3ncc4c(n3)N3CCOCC3C(=O)N4Cc3ccc(S(C)(=O)=O)cc3)c[nH]c12", "note": "(centres unmarked) [Example 138, 2-(7-methoxy-1H-indol-3-yl)-5-(4-(methylsulfonyl)benzyl)-6a,7,9,10-tetrahydro-[1,4]oxazino[3,4-h]pteridin-6(5H)-one]", "IC50": 3160}, {"smiles": "CS(=O)(=O)c1ccc(CN2C(=O)C3COCCN3c3nc(-c4cccc5[nH]cnc45)ncc32)cc1", "note": "(centres unmarked) [Example 139, 2-(1H-benzo[d]imidazol-4-yl)-5-(4-(methylsulfonyl)benzyl)-6a,7,9,10-tetrahydro-[1,4]oxazino[3,4-h]pteridin-6(5H)-one]", "IC50": 79.4}, {"smiles": "COc1cc(-c2ncc3c(n2)N2CCOCC2C(=O)N3Cc2ccc(S(C)(=O)=O)cc2)ccn1", "note": "(centres unmarked) [Example 140, 2-(2-methoxypyridin-4-yl)-5-(4-(methylsulfonyl)benzyl)-6a,7,9,10-tetrahydro-[1,4]oxazino[3,4-h]pteridin-6(5H)-one]", "IC50": 631}, {"smiles": "CS(=O)(=O)c1ccc(CN2C(=O)C3COCCN3c3nc(-c4cc(N)ccn4)ncc32)cc1", "note": "(centres unmarked) [Example 141, 2-(4-aminopyridin-2-yl)-5-(4-(methylsulfonyl)benzyl)-6a,7,9,10-tetrahydro-[1,4]oxazino[3,4-h]pteridin-6(5H)-one]", "IC50": "> 10000"}, {"smiles": "CS(=O)(=O)c1ccc(CN2C(=O)C3COCCN3c3nc(-c4ccc(F)c5[nH]ccc45)ncc32)cc1", "note": "(centres unmarked) [Example 142, 2-(7-fluoro-1H-indol-4-yl)-5-(4-(methylsulfonyl)benzyl)-6a,7,9,10-tetrahydro-[1,4]oxazino[3,4-h]pteridin-6(5H)-one]", "IC50": 20}, {"smiles": "Cc1c[nH]c2c(F)ccc(-c3ncc4c(n3)N3CCOCC3C(=O)N4Cc3ccc(S(C)(=O)=O)cc3)c12", "note": "(centres unmarked) [Example 143, 2-(7-fluoro-3-methyl-1H-indol-4-yl)-5-(4-(methylsulfonyl)benzyl)-6a,7,9,10-tetrahydro-[1,4]oxazino[3,4-h]pteridin-6(5H)-one]", "IC50": 2000}, {"smiles": "CS(=O)(=O)c1ccc(CN2C(=O)C3COCCN3c3nc(-c4cncc5[nH]ccc45)ncc32)cc1", "note": "(centres unmarked) [Example 144, 5-(4-(methylsulfonyl)benzyl)-2-(1H-pyrrolo[2,3-c]pyridin-4-yl)-6a,7,9,10-tetrahydro-[1,4]oxazino[3,4-h]pteridin-6(5H)-one]", "IC50": 2.51}, {"smiles": "O=C1C2COCCN2c2nc(-c3cccc4[nH]ccc34)ncc2N1Cc1ccccc1", "note": "(centres unmarked) [Example 145, 5-benzyl-2-(1H-indol-4-yl)-6a,7,9,10-tetrahydro-[1,4]oxazino[3,4-h]pteridin-6(5H)-one]", "IC50": 25.1}, {"smiles": "O=C1C2COCCN2c2nc(-c3cccc4[nH]ccc34)ncc2N1C1CCc2ccc(Cl)cc21", "note": "(centres unmarked) [Example 146, 5-(6-chloro-2,3-dihydro-1H-inden-1-yl)-2-(1H-indol-4-yl)-6a,7,9,10-tetrahydro-[1,4]oxazino[3,4-h]pteridin-6(5H)-one]", "IC50": 31.6}, {"smiles": "CNC(=O)Nc1ccc(-c2ncc3c(n2)N2CCOCC2C(=O)N3C2CCc3ccc(Cl)cc32)cc1", "note": "(centres unmarked) [Example 147, 1-(4-(5-(6-chloro-2,3-dihydro-1H-inden-1-yl)-6-oxo-5,6,6a,7,9,10-hexahydro-[1,4]oxazino[3,4-h]pteridin-2-yl)phenyl)-3-methylurea]", "IC50": 20}, {"smiles": "CNC(=O)Nc1ccc(-c2ncc3c(n2)N2CCOCC2C(=O)N3C2CCc3ccc(OC)cc32)cc1", "note": "(centres unmarked) [Example 148, 1-(4-(5-(6-methoxy-2,3-dihydro-1H-inden-1-yl)-6-oxo-5,6,6a,7,9,10-hexahydro-[1,4]oxazino[3,4-h]pteridin-2-yl)phenyl)-3-methylurea]", "IC50": 3.98}, {"smiles": "O=C1Nc2cnc(-c3cccc4c3OCO4)nc2N2CCOCC12", "note": "(centres unmarked) [Example 151, 2-(benzo[d][1,3]dioxol-4-yl)-6a,7,9,10-tetrahydro-[1,4]oxazino[3,4-h]pteridin-6(5H)-one]", "IC50": 5010}, {"smiles": "O=C1Nc2cnc(-c3cccc4[nH]cnc34)nc2N2CCOCC12", "note": "(centres unmarked) [Example 152, 2-(1H-benzo[d]imidazol-4-yl)-6a,7,9,10-tetrahydro-[1,4]oxazino[3,4-h]pteridin-6(5H)-one]", "IC50": 501}, {"smiles": "CS(=O)(=O)c1ccc(CN2C(=O)C3COCCN3c3nc(-c4ccnc5[nH]ccc45)ncc32)cc1", "note": "(centres unmarked) [Example 155, 5-(4-(methylsulfonyl)benzyl)-2-(1H-pyrrolo[2,3-b]pyridin-4-yl)-6a,7,9,10-tetrahydro-[1,4]oxazino[3,4-h]pteridin-6(5H)-one]", "IC50": 25.1}, {"smiles": "Cc1nccn1-c1ncc2c(n1)N1CCOCC1C(=O)N2Cc1ccc(S(C)(=O)=O)cc1", "note": "(centres unmarked) [Example 156, 2-(2-methyl-1H-imidazol-1-yl)-5-(4-(methylsulfonyl)benzyl)-6a,7,9,10-tetrahydro-[1,4]oxazino[3,4-h]pteridin-6(5H)-one]", "IC50": 316}, {"smiles": "Cc1nnc(CN2C(=O)C3COCCN3c3nc(-n4c(C(F)F)nc5ccccc54)ncc32)o1", "note": "(centres unmarked) [Example 157, 2-(2-(difluoromethyl)-1H-benzo[d]imidazol-1-yl)-5-((5-methyl-1,3,4-oxadiazol-2-yl)methyl)-6a,7,9,10-tetrahydro-[1,4]oxazino[3,4-h]pteridin-6(5H)-one]", "IC50": 39.8}, {"smiles": "CNC(=O)Nc1ccc(-c2ncc3c(n2)N2CCOCC2C(=O)N3C2CCOCC2)cc1", "note": "(centres unmarked) [Example 158, 1-methyl-3-(4-(6-oxo-5-(tetrahydro-2H-pyran-4-yl)-5,6,6a,7,9,10-hexahydro-[1,4]oxazino[3,4-h]pteridin-2-yl)phenyl)urea]", "IC50": 7.94}, {"smiles": "CNC(=O)Nc1ccc(-c2ncc3c(n2)N2CCOC[C@@H]2C(=O)N3C2CCOCC2)cc1", "note": "[Example 159, (R)-1-methyl-3-(4-(6-oxo-5-(tetrahydro-2H-pyran-4-yl)-5,6,6a,7,9,10-hexahydro-[1,4]oxazino[3,4-h]pteridin-2-yl)phenyl)urea]", "IC50": 2.51}, {"smiles": "c1cnc(CN2CC3COCCN3c3nc(-c4cccc5[nH]ccc45)ncc32)nc1", "note": "(centres unmarked) [Example 164, 2-(1H-indol-4-yl)-5-(pyrimidin-2-ylmethyl)-5,6,6a,7,9,10-hexahydro-[1,4]oxazino[3,4-h]pteridine]", "IC50": 79.4}]}]}
